Laboratory results reported in patent US11278550B2, “Compositions and methods for the treatment of Prader-Willi syndrome” (Duke University, priority 2016, dated 2022).

Experiments:
PWS-IC = assay: Bisulfite genomic sequencing of PWS-IC, human PWS cells; format: cell-based
Protocol: Genomic DNA was isolated from human PWS fibroblasts or mouse tissues. DNA (1 μg) was then treated by bisulfite using the Epi-Tect bisulfite kit (Qiagen), and 125 ng input DNA was used per PCR amplification. PCR products were sub-cloned into pGEM-T easy vector (Promega) and an average of 15 clones were sequenced. DNA sequencing results were analyzed using BISMA web-based analysis platform with a setting for individual clones with <95% bisulfite conversion and <90% sequence identity to be excluded in the analysis.

human PWS fibroblasts = assay: Chromatin immunoprecipitation (ChIP-qPCR) of H3K9me2/H3K9me3; format: cell-based; conditions: in words
Protocol: Histone methylations on the SNRPN locus in human fibroblasts were analyzed by chromatin immunoprecipitation assay (ChIP) using the protocol as previously reported (see Fulmer-Smentek et al., Human molecular genetics 10, 645-652 (2001)). ChIP assay was performed using ChIP-IT Express magnetic kit (Active Motif) according to the manufacturer's instructions with modification for the fixation and reverse-crosslinking steps. Briefly, native chromatin was prepared without fixation and enzymatic digestions to average 150-500 bp sized chromatin. 20 μg of chromatin was added to the specific antibodies (2 μg) or species control isotype antibodies for each immunoprecipitation reaction. The antibody-chromatin complexes were bound to protein G magnetic beads for recovering chromatin immunoprecipitates. RNase- and proteinase K-treated DNA was purified using PCR purification columns (Promega). DNA recovery was quantified by real time PCR performed on the LightCycler480 instrument (Roche) using SsoAdvanced Universal SYBR green Supermix (Biorad). Antibodies were anti-rabbit acetylated H3 (Millipore 06-599), anti-mouse monoclonal Histone H3 dimethyl K9 (Abcam 1220) and Histone H3 trimethyl K9 (Millipore, 07-442) antibodies. qPCR reactions were performed with the following cycling parameters: at 95° C./5 min followed by 40 cycles of 95° C./30 sec, 60° C./60 sec. Data was normalized to the total input.

maternal Snrpn-EGFP MEFs = assay: High content screening / concentration response of Snrpn-EGFP unsilencing; format: cell-based, mouse; conditions: mS-EGFP/p+ MEFs
Protocol: High content screenings of small molecules were performed as described in Huang, et al. Nature 481, 185-189 (2012). HCS comprises a 384-well high-content screen using primary mouse embryonic fibroblasts (MEFs) from m^S-EGFP/p^+, and searched for drug-like molecules that could unsilence the maternal S-EFGP allele. […] To perform the screen, primary MEFs were isolated from E12.5-14.5 embryos of m^S-EGFP/p^+ and cultured for 7 days in Dulbecco's modified Eagle's media supplemented with 10% fetal bovine serum, 100 Units/mL penicillin and 100 μg/mL streptomycin, at 37° C. and 5% CO2. One day before treatment with small molecules, 5,000 cells per well were plated onto 384-well plates. The cells were then treated with compounds (10 μM for 72 hours) from multiple small molecule libraries (FIG. 1f and FIG. 2). In total, 9,157 small molecules were screened in quadruplicate, normalizing values to vehicle-treatment (0.2% DMSO) (Table 1). The unsilencing of Snrpn-EGFP was determined three days after drug treatment. The immunofluorescence-processed fibroblasts were imaged for Hoechst and Alexa Fluor 488 fluorescence using a BD Pathway 855 high content imaging microscope. Antibody-enhanced Snrpn-EGPF fluorescence intensity was determined in drug-treated cells individually and normalized to cells treated with vehicle control. In order to identify potentially active compounds, an arbitrary cutoff of 125% was used where 100% indicates basal fluorescence in the vehicle-treated MEFs. Analysis was performed using Cell Profiler with custom macro and algorithms. Potential active drugs were defined as the increase in drug-mediated EGFP fluorescence consistently observed across quadruplicate wells and minimal or no cytotoxicity measured by Hoechst-stained nuclear structure (and the changes in total number of cells). After initial validation of all potential active drugs (e.g., to determine whether active compounds show inherent fluorescence, the wild-type fibroblasts were also treated), only effective hit compounds further validated in dose-response tests to determine relative efficacy (Emax) and potency (EC50). The dose-response results were analyzed by using Graphpad Prism (Graphpad Software). The calculated EC50 values (potencies) and estimated Emax (efficacy, Y-value top plateau) enabled comparative analyses of the relative potency and efficacy of the identified compounds.
Three days after drug treatment, the cells were fixed at 4% paraformaldehyde at room temperature for 10 min, followed by rinsing with 1× PBS. The cells were permeabilized with 0.5% Triton X-100 in 1× PBS at room temperature for 10 min, followed by blocking with 5% normal goat serum in 0.1% Triton X-100 in 1× PBS at room temperature for 30 minutes. Primary rabbit anti-GFP antibody (1:1000, Novus Biologicals cat. no. NB100-1770) was incubated at 4° C. overnight. The next day, the cells were rinsed with 1× PBS and incubated with goat anti-rabbit Alexa Fluor 488 (Invitrogen cat. no. A-11008) and Hoechst at room temperature. One hour after incubation, the cells were rinsed with 1× PBS and imaged for Hoechst and Alexa Fluor 488 fluorescence using a BD Pathway 855 high content imaging microscope.
It is not feasible to design a screen for noncoding RNA. Alternatively, SNRPN/Snprn is paternally expressed but maternally silenced in all human and mouse tissues. The allele-specific expression of human SNRPN is regulated by the PWS-IC, which also controls the expression of host transcripts for SnoRNAs, including the SNORD116 cluster between SNRPN and UBE3A. see Le Meur, E. et al., Dev. Biol. 286, 587-600 (2005). Thus, the Snrpn-EGFP fusion protein (hereafter S-EGFP) was used as a marker for high content screening (HCS). It was determined that small molecules that can unsilence S-EGFP would also be effective in reactivating the host transcript of SNORD116. […]

Row | Compound | DNA methylation of the PWS-IC (PWS-IC) | level of H3K9me2 (and H3K9me3) in the PWS-IC (human PWS fibroblasts) | activation of S-EGFP (maternal Snrpn-EGFP MEFs)
1 | Nc1ncn([C@H]2C[C@H](O)[C@@H](CO)O2)c(=O)n1 [5-Aza-dC, 5-aza deoxycytidine, reference compound] | significantly decreased | reduced | 
2 | COc1cc2nc(N3CCCN(C)CC3)nc(NC3CCN(Cc4ccccc4)CC3)c2cc1OC [BIX01294, reference compound] |  |  | did not have a substantial effect
3 | C[S+](CC[C@H](N)C(=O)O)C[C@H]1O[C@@H](n2cnc3c(N)ncnc32)[C@H](O)[C@@H]1O (some centres unmarked) [S-adenosyl-methionine, reference compound] |  |  | did not have an effect
4 | Nc1ccccc1NC(=O)c1ccc(CNC(=O)OCc2cccnc2)cc1 [entinostat, reference compound] |  |  | did not have an effect
5 | CC(/C=C/C(=O)NO)=C\[C@@H](C)C(=O)c1ccc(N(C)C)cc1 [trichostatin A, reference compound] |  |  | did not have an effect
6 | CCCC(CCC)C(=O)O [valproic acid, reference compound] |  |  | did not have an effect
7 | O=C(CCCCCCC(=O)Nc1ccccc1)NO [vorinostat, suberoylanilide hydroxamic acid, reference compound] |  |  | did not have an effect
